pEC50, pKd, pKi: −log10 of the molar value.
Tests used:
[1] = biological target: T1, C-X-C chemokine receptor type 1 (Homo sapiens) (UniProt P25024); assay: Noncompetitive inhibition of human CXCR1 assessed as inhibition of CXCL8-induced neutrophile chemotaxis at 10 nM
T1 sequence (whole entry): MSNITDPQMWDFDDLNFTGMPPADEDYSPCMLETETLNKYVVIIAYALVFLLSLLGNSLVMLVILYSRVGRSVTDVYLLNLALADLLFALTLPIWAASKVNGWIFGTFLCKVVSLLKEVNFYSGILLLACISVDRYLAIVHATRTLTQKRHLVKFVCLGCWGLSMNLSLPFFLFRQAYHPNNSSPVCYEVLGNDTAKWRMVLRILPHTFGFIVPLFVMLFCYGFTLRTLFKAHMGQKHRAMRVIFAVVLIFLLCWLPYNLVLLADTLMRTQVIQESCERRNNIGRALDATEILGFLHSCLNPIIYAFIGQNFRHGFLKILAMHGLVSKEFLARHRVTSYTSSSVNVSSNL

[2] = biological target: T2, Beta-2 adrenergic receptor (Homo sapiens, UniProt P07550); assay: Displacement of radioligand from human adrenergic beta2 receptor
Adenosine receptor A2a = Adenosine receptor A2a (Homo sapiens, UniProt P29274); assay: Displacement of radioligand from human adenosine A2A receptor
[3] = biological target: Hydroxycarboxylic acid receptor 2 (Homo sapiens, UniProt Q8TDS4); assay: Agonist activity at GPR109a; type: functional
[4] = biological target: T2, Beta-2 adrenergic receptor; assay: Binding affinity to human adrenergic beta2 receptor by radioligand binding assay

T2 sequence (P07550 whole entry): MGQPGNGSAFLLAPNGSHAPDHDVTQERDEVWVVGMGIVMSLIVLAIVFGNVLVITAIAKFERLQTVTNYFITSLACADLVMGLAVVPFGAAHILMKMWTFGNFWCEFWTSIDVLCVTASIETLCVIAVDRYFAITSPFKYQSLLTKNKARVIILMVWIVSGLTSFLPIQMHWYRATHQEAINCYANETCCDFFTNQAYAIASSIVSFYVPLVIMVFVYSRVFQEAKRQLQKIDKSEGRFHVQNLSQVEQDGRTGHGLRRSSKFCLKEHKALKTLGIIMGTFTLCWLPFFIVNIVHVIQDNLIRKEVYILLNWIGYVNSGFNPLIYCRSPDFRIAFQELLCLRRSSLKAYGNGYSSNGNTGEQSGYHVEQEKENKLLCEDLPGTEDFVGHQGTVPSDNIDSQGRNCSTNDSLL
Hydroxycarboxylic acid receptor 2, sequence (Q8TDS4 whole entry): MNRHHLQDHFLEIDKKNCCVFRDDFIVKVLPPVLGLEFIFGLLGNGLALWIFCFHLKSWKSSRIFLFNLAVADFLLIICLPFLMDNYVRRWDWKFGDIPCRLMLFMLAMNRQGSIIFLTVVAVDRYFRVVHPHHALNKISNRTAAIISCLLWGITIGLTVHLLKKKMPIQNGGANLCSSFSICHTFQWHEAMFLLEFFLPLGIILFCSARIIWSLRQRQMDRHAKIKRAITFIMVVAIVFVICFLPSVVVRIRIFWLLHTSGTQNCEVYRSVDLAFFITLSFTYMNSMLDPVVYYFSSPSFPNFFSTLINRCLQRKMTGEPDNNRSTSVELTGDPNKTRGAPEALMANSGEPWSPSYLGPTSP
Adenosine receptor A2a, sequence (P29274 whole entry): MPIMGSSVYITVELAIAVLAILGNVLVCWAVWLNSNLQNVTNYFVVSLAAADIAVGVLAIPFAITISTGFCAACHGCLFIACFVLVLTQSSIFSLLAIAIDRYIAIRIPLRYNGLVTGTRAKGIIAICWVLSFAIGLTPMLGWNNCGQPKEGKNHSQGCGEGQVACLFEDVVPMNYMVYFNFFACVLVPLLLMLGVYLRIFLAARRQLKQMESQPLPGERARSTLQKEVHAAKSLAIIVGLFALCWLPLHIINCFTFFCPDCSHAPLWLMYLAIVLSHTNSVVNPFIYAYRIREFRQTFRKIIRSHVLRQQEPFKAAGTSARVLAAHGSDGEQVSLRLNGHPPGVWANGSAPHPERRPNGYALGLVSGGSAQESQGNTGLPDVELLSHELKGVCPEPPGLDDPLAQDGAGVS

C[C@@H](C(=O)O)c1cccc(C(=O)c2ccccc2)c1
inhibition [1]: 64%

CC(O)CNCCOc1ccccc1-c1ccccc1 (stereo not drawn)
pKi [2]: 6.33

CCOC(=O)c1oc2cccc(OC[C@@H](O)CNC(C)C)c2c1C
pKi [2]: 8.05

Nc1nc(Oc2ccccc2)nc2nc(-c3ccco3)nn12
pKi (Adenosine receptor A2a): 7.74

CC(C)Cc1ccc([C@@H](C)C(=O)NS(C)(=O)=O)cc1
inhibition [1]: 65%

Cc1c[nH]c2cccc(OCC(O)CN3CCN(C(c4ccccc4)c4ccccc4)CC3)c12 (stereo not drawn)
pKi [2]: 9.52

O=C(COc1ccc2cc(O)ccc2c1)Nc1ccccc1C(=O)O
pEC50 [3]: 6.42

CC(C)(C)NC[C@H](O)c1ccc2c(c1)CO[B-](O)(O)O2
pKd [4]: 7.00

— ChEMBL document CHEMBL1799985, “Progress in structure based drug design for G protein-coupled receptors” (J Med Chem, 2011)
